We go through five compounds from patent US20230146923A1, “COMPOSITIONS AND METHODS FOR INHIBITION AND TARGETING OF P97” (California Institute of Technology, priority 2021, published 2023).

The test system of assay [1] is cyclin D1. As to the kind of experiment: Cyclin D1 level and degradation (co-treatment, CHX chase). It is filed as cell-based. Particulars: HCT116, 6 hours; MG132 1 μM, CB-5083 2 μM, Baf A1 10 μM. As for the experimental part:
FIGS. 12A-12C depicts Western blots detecting the effects of p97 inhibitors and MG132 on cell cycle proteins in HT29 and HCT116 cells. […] Then, 50 μM of CHX was added and cells were collected at 0 h, 0.5 h, and 1 h. FIG. 12C depicts half-life of cyclin D1 in HCT116 cells. HCT116 cells were pre-treated with 5 μM of CB-5083 or DMSO for 30 minutes before adding 50 μM of CHX, and cells were collected at 0, 10, 20, 30 min (n=3), * indicates p<0.05 according to unpaired t-test.
(§1) The concentration of MG132, CB-5083 and Baf A1 was 1 μM, 2 μM and 10 μM, respectively. […] FIGS. 13D-13E depict the half-life of Securin in HCT116 cells. HCT116 cells were treated with 1 μM of MG132, 2 μM of CB-5083, 1 μM of MG132 plus 2 μM of CB-5083 or DMSO. […] Cells were pretreated with […] for 1 h. […] For FIGS. 13B-13G, D, B, M, C and N represents DMSO, Baf A1, MG132, CB-5083 and NMS-873, respectively. Data are shown as mean±SD. Statistical analysis was performed using one-way ANOVA.
Cells were co-treated with CB-5083 and either the proteasome inhibitor MG132 or the autophagy inhibitor Bafilomycin A1 (Baf A1).

For assay [2], the system named is HCT116 cells. As to the kind of experiment: TMT labeling proteomics of HCT116 cells treated with MG132, CB-5083 or NMS-873. It is filed as cell-based. Particulars: for Log2 FC Baculoviral IAP repeat-containing protein 5 (BIRC5) / Log2 FC Cell division cycle protein 20 homolog (CDC20) / Log2 FC F-box only protein 5 (FBXO5) / Log2 FC G1/S-specific cyclin-D1 (CCND1) / Log2 FC Geminin (GMNN) / Log2 FC M-phase inducer phosphatase 2 (CDC25B) / Log2 FC Mitotic checkpoint serine/threonine-protein kinase BUB1 (BUB1) / Log2 FC Myc proto-oncogene protein (MYC) / Log2 FC Origin recognition complex subunit 6 (ORC6) / Log2 FC Ribonucleoside-diphosphate reductase subunit M2 (RRM2) / Log2 FC Securin (PTTG1): compound vs DMSO; for Four XBP1 activated genes/proteins (DNAJB11, SRPR, SRPRB, SYVN1), Log2FC: HCT116, 24 h of treatment, p<0.05. As to the method: HCT116 cells were treated with 1 μM MG132, 2 μM CB-5083 or 4 μM of NMS-874 for 6 h or 24 h, n=2. […] M, C and N represents MG132, CB-5083 and NMS-873, respectively.
As a step toward understanding the differential effects of inhibiting p97 and the proteasome in cancer treatment, the effect of inhibiting p97 was compared to proteasome inhibition using tandem mass tag (TMT) 16-plexed labelling. This technique allowed for capture of alterations in the proteome after exposure to MG132 (proteasome inhibitor) and p97 inhibitors (CB-5083 and NMS-873). […] Samples were pooled together, fractionated into 8 fractions using high pH reverse chromatography, and analyzed using the highly accurate RTS-SPS-MS3 method.

The subject of the next assay is HCT116 tumor cells. The note with it: mouse xenograft models implanted with HCT116 tumor cells, ref [22]; cited from earlier work.
Assay [3] deals with Securin. The note with it: HT29, pretreated with MG132 for 1 h, then 2 μM CB-5083 with 50 μM CHX. As to the method: as §1
Assay [4] relates to HCT116 cells. The note with it: HCT116, 6 h treatment, 2 μM CB-5083. As to the method:
as §1

Assay [5] relates to Securin. As to the kind of experiment: Securin degradation (CHX chase) in HCT116 cells. It is filed as cell-based. The note with it: HCT116, pretreated with MG132 for 1 h, then 2 μM CB-5083 with 50 μM CHX. As to the method: as §1
Assay [6] has as its system cancer cell proliferation. The note with it: ref [22]; cited from earlier work.
The test system of assay [7] is HCT116 cells. As to the kind of experiment: Cell cycle analysis (DNA content). It is filed as cell-based. The note with it: HCT116, 24 h. As for the experimental part:
FIG. 7A depicts cell cycle analysis of HCT116 cells after 24 h of treatments with DMSO, 1 μM of MG132 (MG) or 2 μM of CB-5083. […] Data were from TMT labeling proteomics. M, C and N indicates MG132, CB-5083 and NMS-873 treatment, respectively. […] HCT116 cells were treated for 24 h with DMSO, 1 μM of MG132 (MG), 2 μM of CB-5083 (CB) or 4 μM of NMS-873 (NMS), n=3.

The subject of assay [8] is HCT116 cells. As to the kind of experiment: Temporal label-free (LFQ) proteomics of HCT116 cells treated with p97 inhibitors. Type of assay: cell-based. The note with it: 4 μM UPCDC-30245, 2 μM CB-5083, 4 μM NMS-873. As for the experimental part: This percentage was calculated by dividing the number of overlapping proteins by the sum of all DE proteins identified by p97 KD and/or inhibitor treatment. HCT116 cells were treated with 4 μM UPCDC-30245, 2 μM CB-5083 or 4 μM of NMS-874 for the indicated time points, n=2.
To explore the temporal proteomic profiles of p97 inhibition, HCT116 cells were treated with DMSO, and p97 inhibitors (CB-5083, NMS-873 or UPCDC-30245) for 2 h, 6 h, 10 h, 18 h, or 24 h in duplicate. […] To compare the proteomic profile of p97 shRNA KD to that of different p97 inhibitors, DE proteins identified through p97 KD were compared with those identified under different inhibitor treatments (p<0.05) at each time point. […] To reveal the cellular effects common to both p97 KD and p97 inhibitors, overlapping DE proteins across different timepoints for each inhibitor treatment were combined.

Assay [9] concerns cyclin D1. The note with it: Parisi et al. [71]; cited from earlier work.

The structures appear in SMILES notation. Like-named read-outs stand apart in the source and are kept apart here.

As for `CO/C1=C\C(C)=C\[C@@H](C)[C@@H](O)[C@@H](C)C/C(C)=C/C=C/[C@H](OC)[C@@H]([C@@H](C)[C@@H](O)[C@H](C)[C@@]2(O)C[C@@H](O)[C@H](C)[C@@H](C(C)C)O2)OC1=O` [Baf A1, Bafilomycin A1], the “Effect on CB-5083 mediated cyclin D1 downregulation (co-treatment)” value in the assay on cyclin D1 [1] was “no effect on cyclin D1 levels”.
With `Cc1cc2c(C(N)=O)cccc2n1-c1nc2c(c(NCc3ccccc3)n1)COCC2` [CB-5083], in the assay on HCT116 cells [2] (HCT116, 6 h treatment), the “Log2 FC Baculoviral IAP repeat-containing protein 5 (BIRC5)” value is −0.5, the “Log2 FC Cell division cycle protein 20 homolog (CDC20)” value was −0.4, the “Log2 FC F-box only protein 5 (FBXO5)” value is −0.8 and the “Log2 FC G1/S-specific cyclin-D1 (CCND1)” value is −1.4. Further, in the assay on HCT116 cells [2] (HCT116, 6 h treatment), the “Log2 FC Geminin (GMNN)” value was −0.4, the “Log2 FC M-phase inducer phosphatase 2 (CDC25B)” value is recorded as −1.1, the “Log2 FC Mitotic checkpoint serine/threonine-protein kinase BUB1 (BUB1)” value is reported as −0.3 and the “Log2 FC Myc proto-oncogene protein (MYC)” value was −0.5. For the same compound, in the assay with HCT116 cells [2] (HCT116, 6 h treatment), the “Log2 FC Origin recognition complex subunit 6 (ORC6)” value was −0.4, the “Log2 FC Ribonucleoside-diphosphate reductase subunit M2 (RRM2)” value is −0.2 and the “Log2 FC Securin (PTTG1)” value is −0.9. Besides, in the assay on HCT116 cells [2], the “Four XBP1 activated genes/proteins (DNAJB11, SRPR, SRPRB, SYVN1), Log2FC” value is “significantly upregulated”. For the same compound, in the assay on HCT116 cells [2] (HCT116, 24 h treatment), the “Log2 FC Baculoviral IAP repeat-containing protein 5 (BIRC5)” value is −0.8, the “Log2 FC Cell division cycle protein 20 homolog (CDC20)” value is reported as −1.5, the “Log2 FC F-box only protein 5 (FBXO5)” value is on record as −1.0 and the “Log2 FC G1/S-specific cyclin-D1 (CCND1)” value is reported as −2.0. Further, in the assay on HCT116 cells [2] (HCT116, 24 h treatment), the “Log2 FC Geminin (GMNN)” value was −1.1, the “Log2 FC M-phase inducer phosphatase 2 (CDC25B)” value is −1.6, the “Log2 FC Mitotic checkpoint serine/threonine-protein kinase BUB1 (BUB1)” value is recorded as −1.1 and the “Log2 FC Myc proto-oncogene protein (MYC)” value was −0.7. Also, in the assay on HCT116 cells [2] (HCT116, 24 h treatment), the “Log2 FC Origin recognition complex subunit 6 (ORC6)” value was −0.3, the “Log2 FC Ribonucleoside-diphosphate reductase subunit M2 (RRM2)” value is given as −1.1 and the “Log2 FC Securin (PTTG1)” value is listed as −1.9. Also, the Tumor growth entry in the assay on HCT116 tumor cells is reported as “efficacious in inhibiting tumor growth”. Also, the “Degradation of Securin after MG132 pretreatment” value with Securin [3] is on record as “slightly accelerated the degradation of Securin”. In the assay on HCT116 cells [4], the “RNA level of CDC20” value was “downregulated”. The “Degradation of Securin after MG132 pretreatment” value in the assay on Securin [5] is “slightly accelerated the degradation of Securin”. The Cancer cell proliferation result in [6] was “strongly inhibited cancer cell proliferation”. In addition, the “Potency in reducing G0/G1 and increasing G2/M distribution compared to MG132” value with HCT116 cells [7] is on record as “less potent”. The “Distribution of cells in the G0/G1 phase” value with HCT116 cells [7] (1 μM MG132, 2 μM CB-5083) is recorded as “reduced distribution in the G0/G1 phase”. Moreover, the “UPR proteins and those linked to protein processing in the ER” value (from here on “UPR proteins and those linked”) in the assay on HCT116 cells [8] is “upregulated”.
For the compound `c1ccc(CNc2nc(NCc3ccccc3)c3ccccc3n2)cc1` [DBeQ, N^2,N^4-Bis(phenylmethyl)-2,4-quinazolinediamine], in the assay on cyclin D1 [9], the “Cyclin D1 degradation” value was “promotes cyclin D1 degradation”.
Take `Cc1cc(OCc2nnc(SC3CCCC3)n2-c2cccnc2)ccc1-c1ccc(S(C)(=O)=O)cc1` [NMS-873, 3-[3-cyclopentylsulfanyl-5-[[3-methyl-4-(4-methylsulfonylphenyl)phenoxy]methyl]-1,2,4-triazol-4-yl]pyridine]: in the assay with HCT116 cells [2] (HCT116, 6 h treatment), the “Log2 FC Baculoviral IAP repeat-containing protein 5 (BIRC5)” value is −0.5, the “Log2 FC Cell division cycle protein 20 homolog (CDC20)” value is given as −0.6, the “Log2 FC F-box only protein 5 (FBXO5)” value is −1.1 and the “Log2 FC G1/S-specific cyclin-D1 (CCND1)” value was −1.8. Further, in the assay with HCT116 cells [2] (HCT116, 6 h treatment), the “Log2 FC Geminin (GMNN)” value is recorded as −0.6, the “Log2 FC M-phase inducer phosphatase 2 (CDC25B)” value is −1.6, the “Log2 FC Mitotic checkpoint serine/threonine-protein kinase BUB1 (BUB1)” value is −0.4 and the “Log2 FC Myc proto-oncogene protein (MYC)” value is −1.1. Further, in the assay on HCT116 cells [2] (HCT116, 6 h treatment), the “Log2 FC Origin recognition complex subunit 6 (ORC6)” value is recorded as −0.5, the “Log2 FC Ribonucleoside-diphosphate reductase subunit M2 (RRM2)” value is −0.3 and the “Log2 FC Securin (PTTG1)” value was −1.2. Besides, in the assay with HCT116 cells [2], the “Four XBP1 activated genes/proteins (DNAJB11, SRPR, SRPRB, SYVN1), Log2FC” value is listed as “significantly upregulated”. In the assay with HCT116 cells [2] (HCT116, 24 h treatment), the “Log2 FC Baculoviral IAP repeat-containing protein 5 (BIRC5)” value is listed as −2.0, the “Log2 FC Cell division cycle protein 20 homolog (CDC20)” value is on record as −2.8, the “Log2 FC F-box only protein 5 (FBXO5)” value is −2.4 and the “Log2 FC G1/S-specific cyclin-D1 (CCND1)” value was −3.2. In the assay on HCT116 cells [2] (HCT116, 24 h treatment), the “Log2 FC Geminin (GMNN)” value was −1.8, the “Log2 FC M-phase inducer phosphatase 2 (CDC25B)” value was −2.2, the “Log2 FC Mitotic checkpoint serine/threonine-protein kinase BUB1 (BUB1)” value was −2.1 and the “Log2 FC Myc proto-oncogene protein (MYC)” value is recorded as −1.1. In the assay on HCT116 cells [2] (HCT116, 24 h treatment), the “Log2 FC Origin recognition complex subunit 6 (ORC6)” value is −0.6, the “Log2 FC Ribonucleoside-diphosphate reductase subunit M2 (RRM2)” value is on record as −2.7 and the “Log2 FC Securin (PTTG1)” value is −2.9. The “UPR proteins and those linked” value in the assay on HCT116 cells [8] was “upregulated”.
For `CC(C)N1CCN(CCNC2CCN(c3cccc(-c4cc5cc(F)ccc5[nH]4)c3)CC2)CC1` [UPCDC-30245, 1-(3-(5-Fluoro-1H-indol-2-yl)phenyl)-N-(2-(4-isopropylpiperazin-1-yl)ethyl)piperidin-4-amine], the “UPR proteins and those linked” value with HCT116 cells [8] is recorded as “not”.
